Assay results: US4745124A, “Orally effective anti-hypertensive agents” (priority 1983, dated 1988)

Test system: pressor effects of angiotensin I
Assay: oral effectiveness: blood pressure response to angiotensin I in anesthetized rats
Assay type: in vivo, rat
Experimental: Rats (210-290 g body weight) were fasted overnight and then anesthetized with intraperitoneal pentobarbital, 50-60 mg/kg. Tracheostomy was performed and the animals were ventilated mechanically. A cannula was inserted into a femoral vein for injection of angiotensin I or II, and a second cannula was inserted into a common carotid artery for direct measurement of arterial blood pressure. Heparin, 1,000 units, was injected via the femoral vein to prevent coagulation. Blood pressure was measured with a pressure transducer connected to a polygraph. The rats were injected with 80 ng of angiotensin I or angiotensin II in 20 μl of 0.9 g % NaCl; an amount of antiotensin I or II sufficient to raise mean arterial blood pressure by 27-40 mm Hg. After the responsiveness of a given rat to angiotensins I and II was established, compound (I), at 2 or 5 mg/kg (drug dissolved in 0.5 ml of H2 O plus 10 μl of 1N NaHCO3), was given via a stomach tube. At timed intervals, the effects of 80 ng of angiotensin I or angiotensin II on mean arterial blood pressure were tested.
Rats were prepared as described in Example 222. Compound (II) [N-benzoyl-L-phenylalanylthiopropanoyl)-L-proline] was given orally, via a stomach tube, at a dose of 12 mg/kg or 20 mg/kg. Compound (II) was dissolved in 0.5 ml of H2 O plus 10 μl of 1N NaHCO3. In all other respects, the experimental preparations were exactly as described in Example 222.
Rats (210-290 g body weight) were fasted overnight and then anesthetized with intraperitoneal pentobarbital, 50-60 mg/kg. Tracheostomy was performed and the animals were ventilated mechanically. A cannula was inserted into a femoral vein for injection of angiotensin I or II, and a second cannula was inserted into a common carotid artery for direct measurement of arterial blood pressure. Heparin, 1,000 units, was injected via the femoral vein to prevent coagulation. Blood pressure was measured with a pressure transducer connected to a polygraph. The rats were injected with 160 ng of angiotensin I or 80 ng of angiotensin II in 20 μl of 0.9 g % NaCl; an amount of angiotensin I or II sufficient to raise mean arterial blood pressure by 27-40 mm Hg. After the responsiveness of a given rat to angiotensins I and II was established, compound (B) at 10 mg (drug dissolved in 0.5 ml of H2 O plus 10 μl of 1N NaHCO3), was given via a stomach tube. At timed intervals, the effects of 160 ng of angiotensin I or 80 ng of angiotensin II on mean arterial blood pressure were tested. Results are shown below:
Rats (210-290 g body weight) were fasted overnight and then anesthetized with intraperitoneal pentobarbital, 50-60 mg/kg. Tracheostomy was performed and the animals were ventilated mechanically. A cannula was inserted into a femoral vein for injection of angiotensin I, and a second cannula was inserted into a common carotid artery for direct measurement of arterial blood pressure. Heparin, 1,000 units, was injected via the femoral vein to prevent coagulation. Blood pressure was measured with a pressure transducer connected to a polygraph. The rats were injected with 400 ng/kg of angiotensin I in 20 μl of 0.9 g % NaCl; an amount of angiotensin I sufficient to raise mean arterial blood pressure by 39 mm Hg. After the responsiveness of a given rat to angiotensin I was established, the named compound at 17 μmol/kg (drug dissolved in 0.15 ml of H2 O plus 10 μl of 1N NaHCO3), was given via a stomach tube. At timed intervals, the effects of 400 ng/kg of angiotensin I on mean arterial blood pressure were tested. Results are shown below:
Rats (190-290 g body weight) were fasted overnight and then anesthetized with intraperitoneal pentobarbital, 50-60 mg/kg. Tracheostomy was performed and the animals were ventilated mechanically. A cannula was inserted into a femoral vein for injection of angtiotensin I, and a second cannula was inserted into a common carotid artery for direct measurement of arterial blood pressure. […]

CC(=O)N[C@@H](Cc1ccccc1)C(=O)SC[C@@H](C)C(=O)N1CCC[C@H]1C(=O)O [N-alpha-[3-(N-alpha-acetyl-L-phenylalanylthio)-2-D-methylpropanoyl]-L-proline]
Blood Pressure Response to 400 ng/kg of Angiotensin I (oral 13.6 μmole/kg, 3 min, Ex. 235): 40 % of Control | Blood Pressure Response to 400 ng/kg of Angiotensin I (oral 13.6 μmole/kg, 7 min, Ex. 235): 40 % of Control | Blood Pressure Response to 400 ng/kg of Angiotensin I (oral 13.6 μmole/kg, 13 min, Ex. 235): 28 % of Control | Blood Pressure Response to 400 ng/kg of Angiotensin I (oral 13.6 μmole/kg, 18 min, Ex. 235): 24 % of Control | Blood Pressure Response to 400 ng/kg of Angiotensin I (oral 13.6 μmole/kg, 23 min, Ex. 235): 20 % of Control | Blood Pressure Response to 400 ng/kg of Angiotensin I (oral 13.6 μmole/kg, 31 min, Ex. 235): 18 % of Control | Blood Pressure Response to 400 ng/kg of Angiotensin I (oral 13.6 μmole/kg, 34 min, Ex. 235): 20 % of Control | Blood Pressure Response to 400 ng/kg of Angiotensin I (oral 13.6 μmole/kg, 42 min, Ex. 235): 20 % of Control | Blood Pressure Response to 400 ng/kg of Angiotensin I (oral 13.6 μmole/kg, 48 min, Ex. 235): 16 % of Control | Blood Pressure Response to 400 ng/kg of Angiotensin I (oral 13.6 μmole/kg, 58 min, Ex. 235): 16 % of Control | Blood Pressure Response to 400 ng/kg of Angiotensin I (oral 13.6 μmole/kg, 67 min, Ex. 235): 20 % of Control | Blood Pressure Response to 400 ng/kg of Angiotensin I (oral 13.6 μmole/kg, 80 min, Ex. 235): 20 % of Control | Blood Pressure Response to 400 ng/kg of Angiotensin I (oral 13.6 μmole/kg, 90 min, Ex. 235): 18 % of Control | Blood Pressure Response to 400 ng/kg of Angiotensin I (oral 13.6 μmole/kg, 100 min, Ex. 235): 16 % of Control | Blood Pressure Response to 400 ng/kg of Angiotensin I (oral 13.6 μmole/kg, 112 min, Ex. 235): 20 % of Control | Blood Pressure Response to 400 ng/kg of Angiotensin I (oral 13.6 μmole/kg, 125 min, Ex. 235): 20 % of Control | Blood Pressure Response to 400 ng/kg of Angiotensin I (oral 13.6 μmole/kg, 137 min, Ex. 235): 30 % of Control | Blood Pressure Response to 400 ng/kg of Angiotensin I (oral 13.6 μmole/kg, 167 min, Ex. 235): 50 % of Control

C[C@H](CSC(=O)[C@@H](N)Cc1ccccc1)C(=O)N1CCC[C@H]1C(=O)O [N-alpha-(3-L-phenylalanylthio-2-D-methylpropanoyl)-L-proline]
Blood Pressure Response to 400 ng/kg of Angiotensin I (oral 20 μmol/kg, 6 min, Ex. 237): 77 % of Control | Blood Pressure Response to 400 ng/kg of Angiotensin I (oral 20 μmol/kg, 10 min, Ex. 237): 69 % of Control | Blood Pressure Response to 400 ng/kg of Angiotensin I (oral 20 μmol/kg, 19 min, Ex. 237): 46 % of Control | Blood Pressure Response to 400 ng/kg of Angiotensin I (oral 20 μmol/kg, 25 min, Ex. 237): 38 % of Control | Blood Pressure Response to 400 ng/kg of Angiotensin I (oral 20 μmol/kg, 29 min, Ex. 237): 38 % of Control | Blood Pressure Response to 400 ng/kg of Angiotensin I (oral 20 μmol/kg, 38 min, Ex. 237): 33 % of Control | Blood Pressure Response to 400 ng/kg of Angiotensin I (oral 20 μmol/kg, 50 min, Ex. 237): 33 % of Control | Blood Pressure Response to 400 ng/kg of Angiotensin I (oral 20 μmol/kg, 57 min, Ex. 237): 31 % of Control | Blood Pressure Response to 400 ng/kg of Angiotensin I (oral 20 μmol/kg, 65 min, Ex. 237): 31 % of Control | Blood Pressure Response to 400 ng/kg of Angiotensin I (oral 20 μmol/kg, 74 min, Ex. 237): 26 % of Control | Blood Pressure Response to 400 ng/kg of Angiotensin I (oral 20 μmol/kg, 88 min, Ex. 237): 36 % of Control

C[C@H](CSC(=O)[C@H](Cc1ccccc1)NC(=O)C1CCCC1)C(=O)N1CCC[C@H]1C(=O)O [N-alpha-[3-(N-alpha-cyclopentylcarbonyl-L-phenylalanylthio)-2-D-methylpropanoyl]-L-proline]
Blood Pressure Response to 400 ng/kg of Angiotensin I (oral 23 μmole/kg, 2 min, Ex. 231): 71 % of Control | Blood Pressure Response to 400 ng/kg of Angiotensin I (oral 23 μmole/kg, 6 min, Ex. 231): 63 % of Control | Blood Pressure Response to 400 ng/kg of Angiotensin I (oral 23 μmole/kg, 16 min, Ex. 231): 49 % of Control | Blood Pressure Response to 400 ng/kg of Angiotensin I (oral 23 μmole/kg, 23 min, Ex. 231): 43 % of Control | Blood Pressure Response to 400 ng/kg of Angiotensin I (oral 23 μmole/kg, 37 min, Ex. 231): 43 % of Control | Blood Pressure Response to 400 ng/kg of Angiotensin I (oral 23 μmole/kg, 48 min, Ex. 231): 40 % of Control | Blood Pressure Response to 400 ng/kg of Angiotensin I (oral 23 μmole/kg, 64 min, Ex. 231): 26 % of Control | Blood Pressure Response to 400 ng/kg of Angiotensin I (oral 23 μmole/kg, 71 min, Ex. 231): 26 % of Control | Blood Pressure Response to 400 ng/kg of Angiotensin I (oral 23 μmole/kg, 84 min, Ex. 231): 37 % of Control | Blood Pressure Response to 400 ng/kg of Angiotensin I (oral 23 μmole/kg, 96 min, Ex. 231): 37 % of Control | Blood Pressure Response to 400 ng/kg of Angiotensin I (oral 23 μmole/kg, 109 min, Ex. 231): 40 % of Control | Blood Pressure Response to 400 ng/kg of Angiotensin I (oral 23 μmole/kg, 124 min, Ex. 231): 54 % of Control | Blood Pressure Response to 400 ng/kg of Angiotensin I (oral 23 μmole/kg, 140 min, Ex. 231): 51 % of Control | Blood Pressure Response to 400 ng/kg of Angiotensin I (oral 23 μmole/kg, 157 min, Ex. 231): 63 % of Control | Blood Pressure Response to 400 ng/kg of Angiotensin I (oral 23 μmole/kg, 171 min, Ex. 231): 77 % of Control
